From ChEMBL document CHEMBL3885881, “DrugMatrix”

Species: Rattus norvegicus
Assay: DrugMatrix - Regimen: Daily Repeat
Format: toxicity, organism-based, Sprague-Dawley
Design: regimen Daily Repeat, gender Male, age 6-8 weeks
Details: in vivo, po, route oral GAVAGE, vehicle .5 % CMC; for BASOPHIL / EOSINOPHIL / ERYTHROCYTE COUNT / HEMATOCRIT / HEMOGLOBIN / LEUKOCYTE COUNT / LYMPHOCYTE / MEAN CORPUSCULAR HEMOGLOBIN / MEAN CORPUSCULAR HEMOGLOBIN CONCENTRATION / MEAN CORPUSCULAR VOLUME / MONOCYTE / NEUTROPHIL / PLATELET COUNT: tissue Blood; for ALANINE AMINOTRANSFERASE / ALKALINE PHOSPHATASE / ASPARTATE AMINOTRANSFERASE / BLOOD UREA NITROGEN / CHLORIDE / CHOLESTEROL / CREATINE PHOSPHOKINASE / CREATININE / GLUCOSE / PHOSPHORUS / POTASSIUM / SODIUM / TOTAL BILIRUBIN / TOTAL PROTEIN: tissue Plasma
[1] = 0 mg/kg, 72 h, dose level Control, time 3 day
[2] = 0 mg/kg, 120 h, dose level Control, time 5 day
[3] = 20 mg/kg, 72 h, dose level Low, time 3 day
[4] = 20 mg/kg, 120 h, dose level Low, time 5 day
[5] = 95 mg/kg, 72 h, dose level High, time 3 day
[6] = 95 mg/kg, 120 h, dose level High, time 5 day

With `CN1CCN(C2=Nc3cc(Cl)ccc3Nc3ccccc32)CC1` [CLOZAPINE] the BASOPHIL [1] was 0%, the EOSINOPHIL [1] was 0.33% and the “ERYTHROCYTE COUNT” value [1] was 6.2 x10E6/uL. The HEMATOCRIT [1] was 38.08%, the HEMOGLOBIN [1] was 14.92 G/DL and the “LEUKOCYTE COUNT” value [1] was 11.13 x10E3/uL. The LYMPHOCYTE [1] was 76%, the “MEAN CORPUSCULAR HEMOGLOBIN” value [1] was 24.1 pg and the “MEAN CORPUSCULAR HEMOGLOBIN CONCENTRATION” value [1] was 39.17 G/DL. The “MEAN CORPUSCULAR VOLUME” value [1] was 61.48 fL, the MONOCYTE [1] was 3.83% and the NEUTROPHIL [1] was 19.83%. The “PLATELET COUNT” value [1] was 1327.5 x10E3/uL, the “ALANINE AMINOTRANSFERASE” value [1] was 40.17 u/L and the “ALKALINE PHOSPHATASE” value [1] was 372 u/L. For the same compound, the “ASPARTATE AMINOTRANSFERASE” value [1] was 67.17 u/L, the “BLOOD UREA NITROGEN” value [1] was 18.83 mg/dL and the CHLORIDE [1] was 105.17 MEQ/L. The CHOLESTEROL [1] was 78.17 mg/dL, the “CREATINE PHOSPHOKINASE” value [1] was 149.17 u/L and the CREATININE [1] was 0.57 mg/dL. The GLUCOSE [1] was 185.17 mg/dL, the PHOSPHORUS [1] was 11.43 mg/dL and the POTASSIUM [1] was 6.78 MEQ/L. The SODIUM [1] was 152.83 MEQ/L, the “TOTAL BILIRUBIN” value [1] was 0.4 mg/dL and the “TOTAL PROTEIN” value [1] was 6.87 G/DL. For the same compound, the BASOPHIL [2] was 0%, the EOSINOPHIL [2] was 0% and the “ERYTHROCYTE COUNT” value [2] was 6.05 x10E6/uL. The HEMATOCRIT [2] was 36.55%, the HEMOGLOBIN [2] was 14.7 G/DL and the “LEUKOCYTE COUNT” value [2] was 11.8 x10E3/uL. For the same compound, the LYMPHOCYTE [2] was 86.83%, the “MEAN CORPUSCULAR HEMOGLOBIN” value [2] was 24.37 pg and the “MEAN CORPUSCULAR HEMOGLOBIN CONCENTRATION” value [2] was 40.32 G/DL. For the same compound, the “MEAN CORPUSCULAR VOLUME” value [2] was 60.47 fL, the MONOCYTE [2] was 0.83% and the NEUTROPHIL [2] was 12.33%. The “PLATELET COUNT” value [2] was 1177 x10E3/uL, the “ALANINE AMINOTRANSFERASE” value [2] was 41.83 u/L and the “ALKALINE PHOSPHATASE” value [2] was 377.5 u/L. For the same compound, the “ASPARTATE AMINOTRANSFERASE” value [2] was 60.83 u/L, the “BLOOD UREA NITROGEN” value [2] was 16 mg/dL and the CHLORIDE [2] was 105.67 MEQ/L. For the same compound, the CHOLESTEROL [2] was 67.83 mg/dL, the “CREATINE PHOSPHOKINASE” value [2] was 120.33 u/L and the CREATININE [2] was 0.6 mg/dL. The GLUCOSE [2] was 167.67 mg/dL, the PHOSPHORUS [2] was 10.03 mg/dL and the POTASSIUM [2] was 6.68 MEQ/L. For the same compound, the SODIUM [2] was 150.5 MEQ/L, the “TOTAL BILIRUBIN” value [2] was 0.57 mg/dL and the “TOTAL PROTEIN” value [2] was 6.25 G/DL. The BASOPHIL [3] was 0%, the EOSINOPHIL [3] was 0.5% and the “ERYTHROCYTE COUNT” value [3] was 5.3 x10E6/uL. The HEMATOCRIT [3] was 33.4%, the HEMOGLOBIN [3] was 12.8 G/DL and the “LEUKOCYTE COUNT” value [3] was 10.25 x10E3/uL. For the same compound, the LYMPHOCYTE [3] was 83.5%, the “MEAN CORPUSCULAR HEMOGLOBIN” value [3] was 24.2 pg and the “MEAN CORPUSCULAR HEMOGLOBIN CONCENTRATION” value [3] was 38.35 G/DL. For the same compound, the “MEAN CORPUSCULAR VOLUME” value [3] was 62.95 fL, the MONOCYTE [3] was 0% and the NEUTROPHIL [3] was 16%. For the same compound, the “PLATELET COUNT” value [3] was 1071.5 x10E3/uL, the “ALANINE AMINOTRANSFERASE” value [3] was 33.33 u/L and the “ALKALINE PHOSPHATASE” value [3] was 312 u/L. For the same compound, the “ASPARTATE AMINOTRANSFERASE” value [3] was 54 u/L, the “BLOOD UREA NITROGEN” value [3] was 13.33 mg/dL and the CHLORIDE [3] was 104.33 MEQ/L. For the same compound, the CHOLESTEROL [3] was 84.67 mg/dL, the “CREATINE PHOSPHOKINASE” value [3] was 145.33 u/L and the CREATININE [3] was 0.57 mg/dL. The GLUCOSE [3] was 148.67 mg/dL, the PHOSPHORUS [3] was 11.43 mg/dL and the POTASSIUM [3] was 6.5 MEQ/L. The SODIUM [3] was 149 MEQ/L, the “TOTAL BILIRUBIN” value [3] was 0.3 mg/dL and the “TOTAL PROTEIN” value [3] was 5.9 G/DL. The BASOPHIL [4] was 0%, the EOSINOPHIL [4] was 0% and the “ERYTHROCYTE COUNT” value [4] was 6.24 x10E6/uL. For the same compound, the HEMATOCRIT [4] was 37.73%, the HEMOGLOBIN [4] was 14.93 G/DL and the “LEUKOCYTE COUNT” value [4] was 15.97 x10E3/uL. For the same compound, the LYMPHOCYTE [4] was 93.67%, the “MEAN CORPUSCULAR HEMOGLOBIN” value [4] was 23.97 pg and the “MEAN CORPUSCULAR HEMOGLOBIN CONCENTRATION” value [4] was 39.57 G/DL. The “MEAN CORPUSCULAR VOLUME” value [4] was 60.57 fL, the MONOCYTE [4] was 1.33% and the NEUTROPHIL [4] was 5%. For the same compound, the “PLATELET COUNT” value [4] was 1152.67 x10E3/uL, the “ALANINE AMINOTRANSFERASE” value [4] was 36.67 u/L and the “ALKALINE PHOSPHATASE” value [4] was 370 u/L. For the same compound, the “ASPARTATE AMINOTRANSFERASE” value [4] was 55.67 u/L, the “BLOOD UREA NITROGEN” value [4] was 13 mg/dL and the CHLORIDE [4] was 106 MEQ/L. For the same compound, the CHOLESTEROL [4] was 72.33 mg/dL, the “CREATINE PHOSPHOKINASE” value [4] was 147.67 u/L and the CREATININE [4] was 0.57 mg/dL. It also gave a GLUCOSE [4] of 152.33 mg/dL, a PHOSPHORUS [4] of 11.4 mg/dL and a POTASSIUM [4] of 6.5 MEQ/L. The SODIUM [4] was 149 MEQ/L, the “TOTAL BILIRUBIN” value [4] was 0.3 mg/dL and the “TOTAL PROTEIN” value [4] was 5.87 G/DL. For the same compound, the BASOPHIL [5] was 0%, the EOSINOPHIL [5] was 0.33% and the “ERYTHROCYTE COUNT” value [5] was 6.22 x10E6/uL. The HEMATOCRIT [5] was 37.83%, the HEMOGLOBIN [5] was 14.53 G/DL and the “LEUKOCYTE COUNT” value [5] was 10.53 x10E3/uL. For the same compound, the LYMPHOCYTE [5] was 81.33%, the “MEAN CORPUSCULAR HEMOGLOBIN” value [5] was 23.4 pg and the “MEAN CORPUSCULAR HEMOGLOBIN CONCENTRATION” value [5] was 38.43 G/DL. The “MEAN CORPUSCULAR VOLUME” value [5] was 60.87 fL, the MONOCYTE [5] was 1% and the NEUTROPHIL [5] was 17.33%. The “PLATELET COUNT” value [5] was 1046 x10E3/uL, the “ALANINE AMINOTRANSFERASE” value [5] was 43.67 u/L and the “ALKALINE PHOSPHATASE” value [5] was 361.33 u/L. The “ASPARTATE AMINOTRANSFERASE” value [5] was 61.67 u/L, the “BLOOD UREA NITROGEN” value [5] was 16.33 mg/dL and the CHLORIDE [5] was 108 MEQ/L. For the same compound, the CHOLESTEROL [5] was 85.33 mg/dL, the “CREATINE PHOSPHOKINASE” value [5] was 131.33 u/L and the CREATININE [5] was 0.57 mg/dL. For the same compound, the GLUCOSE [5] was 153.33 mg/dL, the PHOSPHORUS [5] was 11.9 mg/dL and the POTASSIUM [5] was 7.33 MEQ/L. The SODIUM [5] was 154.33 MEQ/L, the “TOTAL BILIRUBIN” value [5] was 0.27 mg/dL and the “TOTAL PROTEIN” value [5] was 6.13 G/DL. The BASOPHIL [6] was 0%, the EOSINOPHIL [6] was 0.67% and the “ERYTHROCYTE COUNT” value [6] was 6.78 x10E6/uL. The HEMATOCRIT [6] was 41.33%, the HEMOGLOBIN [6] was 16.27 G/DL and the “LEUKOCYTE COUNT” value [6] was 12.7 x10E3/uL. For the same compound, the LYMPHOCYTE [6] was 89.67%, the “MEAN CORPUSCULAR HEMOGLOBIN” value [6] was 24.13 pg and the “MEAN CORPUSCULAR HEMOGLOBIN CONCENTRATION” value [6] was 39.43 G/DL. For the same compound, the “MEAN CORPUSCULAR VOLUME” value [6] was 61.1 fL, the MONOCYTE [6] was 0.33% and the NEUTROPHIL [6] was 9.33%. For the same compound, the “PLATELET COUNT” value [6] was 1299 x10E3/uL, the “ALANINE AMINOTRANSFERASE” value [6] was 60.33 u/L and the “ALKALINE PHOSPHATASE” value [6] was 306.67 u/L. The “ASPARTATE AMINOTRANSFERASE” value [6] was 59.67 u/L, the “BLOOD UREA NITROGEN” value [6] was 14.67 mg/dL and the CHLORIDE [6] was 107 MEQ/L. The CHOLESTEROL [6] was 96.67 mg/dL, the “CREATINE PHOSPHOKINASE” value [6] was 136 u/L and the CREATININE [6] was 0.5 mg/dL. The GLUCOSE [6] was 158 mg/dL, the PHOSPHORUS [6] was 11.83 mg/dL and the POTASSIUM [6] was 6.7 MEQ/L. For the same compound, the SODIUM [6] was 155.67 MEQ/L, the “TOTAL BILIRUBIN” value [6] was 0.2 mg/dL and the “TOTAL PROTEIN” value [6] was 6.6 G/DL.
